In USRE38117E1, “Trioxane dimer compound having antiproliferative and antitumor activities” (Hauser, Inc., priority 1995, dated 2003):

How the values were obtained:
[1] = system: murine keratinocyte cell line PE; experiment: Growth inhibition of PE cells (MTT assay); format: cell-based; settings: murine keratinocytes, FIGS. 1-9
Procedure: To determine the inhibitory effect of the trioxane dimers of the present invention on cell proliferation, screening assays were performed on a murine keratinocyte cell line PE. […] PE cell culture medium consisted of Eagle's minimal essential medium without calcium chloride (Whittaker Bioproducts, Walkersville, Ma.) supplemented with 8% chelexed fetal calf serum and 1% antibiotic-antimycotic (Gibco BRL) and the addition of CaCl2 to 0.05 mM Ca^++. […] (St. Louis, Mo.), and TPA was supplied by L. C. Services (Woburn, Ma.). L-[^14C]ornithine ([…]) was from Amersham/Searle Corp. (Arlington Heights, Ill.). Chemical solvents used in all assays of biological activity were of the highest grade commercially available. Growth Inhibition. […] A mitochondrial dehydrogenase reduces MTT to a blue formazan product with an absorbance maximum of 505 nm in DMSO; the number of viable cells can thus be determined spectrophotometrically. PE cells were seeded at a density of 5,000 cells/well in 50 μL of medium into 96-well microtiter plates. […] The plates were fed once at 48 h, with the readdition of the vitamin D3 analogs at this time. […] After 4 h, the MTT was removed and DMSO added to dissolve the blue formazan dye. Using a microtiter plate reader, the […] was then determined and cell number calculated from blank-subtracted absorbance values.

[2] = system: P. berghei; settings: Klayman 1985; cited from earlier work
[3] = system: murine keratinocyte cell line PE; experiment: Viability of PE cells by trypan blue exclusion; format: cell-based; settings: 96 h

| Compound | antiproliferative activity [1] | also measured |
| --- | --- | --- |
| 4β-Hydroxymethyl Trioxane Terephthalate Dimer [Compound 24] | significant antiproliferative activity | – |
| COC1OC2(C)CCC3CCCC(CCOC(=O)CCCC(=O)OCCC4CCCC5CCC6(C)OOC45C(OC)O6)C31OO2 (stereo not drawn) [Compound 15, Trioxane Bis-ester Dimer] | the most active | – |
| COC1OC2(C)CCC3CCCC(CCOP(=O)(OCCC4CCCC5CCC6(C)OOC45C(OC)O6)Oc4ccccc4)C31OO2 (stereo not drawn) [Compound 20, Bis-trioxane phosphate ester] | Neither phosphate dimers 20, and 21 nor phosphonate dimer 22 has significant antiproliferative activity | – |
| COC1OC2(C)CCC3CCCC(CCOP(=O)(OC)OCCC4CCCC5CCC6(C)OOC45C(OC)O6)C31OO2 (stereo not drawn) [Compound 21, Bis-trioxane phosphate ester] | Neither phosphate dimers 20, and 21 nor phosphonate dimer 22 has significant antiproliferative activity | – |
| CC1=CO[C@@H]2O[C@]3(C)CC[C@H]4[C@H](C)CC[C@@H]1[C@@]24OO3 [III] | – | activity against P. berghei-infected mice [2]: inactive |
| C=C1/C(=C\C=C2/CCC[C@]3(C)[C@@H]([C@H](C)CCCC(C)(C)O)CC[C@@H]23)C[C@@H](O)C[C@@H]1O [calcitriol, 1α, 25-dihydroxyvitamin D3] | – | viability of the cells [3]: identical to control cells |
